From patent US9426996B2, “Use of benzoxaboroles as volatile antimicrobial agents on meats, plants, or plant parts” (AgroFresh Inc., priority 2013, dated 2016)

Tests used:
Fusarium sambucinum = assay: in vivo volatile assay on potato slices; conditions: 10 mg/L, 21° C. for 3 days
Protocol: (§1) To test the effect of Compound A (FIG. 1) on vegetables, potato, onion and squash were obtained from a local store, and the surface sterilized with 0.825% sodium hypochlorite (NaOCl). A slice of potato or two leaves of onion were placed in a sterile Petri plate, while whole squash were placed in a sterile 10.8-cup SnapWare airtight container (Model #109842). Each slice of potato was inoculated with 20 μL of a 1×10^5 spores/mL Fusarium sambucinum suspension, while onions were inoculated with 20 μL of a 1×10^6 spores/mL Botrytis cinerea suspension. For inoculation of squash, a small core was removed, and a mycelial plug of Phytophthora capsici was inserted and capped with the core. Compound A was diluted in acetone, and added to a 42.5 mm Whatman #1 filter disk (Cat. No. 1001-042) attached to the inner side of the lid at a rate to achieve a final headspace concentration of 10 mg/L. The acetone was permitted to evaporate for 5 minutes before parafilm sealing the plates or closing the airtight containers. The vegetables were incubated at 21° C. for 3 days, and evaluated for mycelial growth, dry rot, and water-soaked appearance (mm diameter) with results summarized in Table 13.

Botrytis cinerea [1] = assay: in vivo strawberry assay comparing fog and sublimation; conditions: 10 mg/L, three day treatment plus three days at 21° C.
Protocol: To compare the ability of Compound A when actively volatilized by different mechanisms, an in vivo assay using strawberry is performed. Eight strawberries are placed in a clamshell with stem end facing downwards. […] The clamshell is placed in a 10.8-cup SnapWare airtight container (Model #109842) and closed with the lids. Compound A is dissolved in acetone and volatilized through a sealable ½ inch side port by an ES-100-H SmartFog system (Reno, Nev.). Alternatively, Compound A, dissolved in acetone, is pipetted onto a cotton strip, where the acetone is allowed to evaporate for five minutes, and then introduced into the container by a sublimation device (copper tube heated to 200° C. with fan flow at 0.5 L/min) to achieve a final headspace concentration of 10 mg/L. The fruits are stored for three days at 21° C. After the three days of treatment, fruit are stored for an additional three days at 21° C., and then evaluated for incidence (%) and severity of disease (0 to 4).

Phytophthora capsici = assay: in vivo volatile assay on squash; conditions: 10 mg/L, 21° C. for 3 days
Protocol: as §1

Penicillium expansum [2] = assay: in vivo volatile bioassay using apple; conditions: 50 mg/L; for Sporulation (mm) / Rot (mm): apples
Protocol: In order to assess the in vivo activity of volatile antimicrobial Compound A in fruit, a volatile bioassay is developed using apple. Two apples are placed inside a PET clamshell. Three fresh wounds per apple are inoculated with 30 μL of 1×10^6 per mL Penicillium expansum spore suspension. The clamshells are placed inside a 10.8-cup SnapWare airtight container (Model #109842). A 42.5 mm Whatman #1 filter disk (Cat. No. 1001-042) is placed on a watch glass. Compound A is dissolved in acetone and added to the disks in a manner to produce a final headspace concentration of 50 mg/L. The acetone is permitted to evaporate for five minutes. The containers are then closed with the lids, and placed for three days at 21° C. After storage, fruits are evaluated for disease incidence (mm diameter of the rot) and pathogen sporulation (mm diameter) on the surface of the fruits for an additional three days at 21° C., with results summarized in Table 19.

Botrytis cinerea [3] = assay: in vivo sublimation bioassay on fruit, 10 mg/L (Example 22); conditions: 10 mg/L sublimed, three day treatment plus three days at 21° C.
Protocol: To assess the in vivo activity of volatile antimicrobial Compound A (FIG. 1) in fruit, a volatile bioassay is developed using apple, pear, orange, strawberry, grape and blueberry. Two apples, 2 oranges, 2 pears, 8 strawberries, 16 grapes or 30 blueberries (per replicate, in duplicate) are placed in a clamshell with the stem end facing up for all fruits except for strawberry (stem end facing downwards). A fresh wound is inoculated with 20 μL 1×10^6 per mL Penicillium expansum spore suspension (apple and pear), 20 μL 1×10^6 per mL Penicillium digitatum spore suspension (orange), and 20 μL (strawberry and grape) or 10 μL (blueberry) of 1×10^6 per mL Botrytis cinerea spore suspension. The clamshells are placed inside a 117 L Rubbermaid storage box (Cat #2244) with lids closed. Compound A, dissolved in acetone, is pipetted onto a cotton strip, where the acetone is allowed to evaporate for five minutes, and then introduced into the container by a sublimation device (copper tube heated to 200° C. with fan flow at 0.5 L/min) to achieve a final headspace concentration of 10 mg/L. The containers are then held for three days at 21° C. After treatment, fruits are held for an additional three days at 21° C., then evaluated for disease incidence (mm diameter of browning or water-soaked lesions) and pathogen sporulation (mm diameter) for apple, pear and orange, as well as Botrytis cinerea disease incidence (%) and severity (0 to 4) for strawberry, grape and blueberry, with results summarized in Table 21.

Botrytis cinerea [4] = assay: in vivo volatile assay on onion leaves; conditions: 10 mg/L, 21° C. for 3 days
Protocol: as §1

Penicillium expansum [5] = assay: in vitro contact fungicide assay (amended PDA); format: cell-based; conditions: three days at 23° C.
Protocol: (§2) In order to assess the activity of Compound A as a contact fungicide, an in vitro assay is developed. A 6 cm-diameter Petri plate is used. Compound A is amended into full-strength Potato Dextrose Agar (PDA) to achieve a final solution concentration of 10, 2, 0.4, or 0.08 mg/L, and 15-mL volume of solution is added to each plate. After cooling, 1 μL of 1×10^5 per mL Penicillium expansum or Penicillium digitatum spore suspension is spot-pipetted into the center of the agar.
(§3) Plates are sealed with a parafilm and placed in an incubator held at 23° C. After three days of storage, the cultures are evaluated for percent growth relative to control based on measurement of fungal colony diameter.

Penicillium digitatum = assay: in vitro contact fungicide assay (amended PDA); format: cell-based; conditions: three days at 23° C.
Protocol: as §2, §3

Botrytis cinerea [6] = assay: in vivo dose by time volatile bioassay using strawberry; conditions: 0.125 mg, 3-day treatment at 21° C. plus 2 days at 21° C., vs acetone only control

Question: How did the Dry rot (Fusarium sambucinum) turn out when `OB1OCc2cc(F)ccc21` [Compound A] was run?
Answer: The Dry rot was 0 mm.

Question: And the Mycelial growth (Fusarium sambucinum)?
Answer: The Mycelial growth was 0 mm.

Question: And the “Incidence (%)” value (Botrytis cinerea [1]; Fog)?
Answer: The value was 6.3%.

Question: What about the “Severity (0 to 4)” value (Botrytis cinerea [1]; Fog) of the same compound?
Answer: Its value is 0.03.

Question: What about the “Incidence (%)” value (Botrytis cinerea [1]; Sublimation) of the same compound?
Answer: The value was 0.0%.

Question: And the “Severity (0 to 4)” value (Botrytis cinerea [1]; Sublimation)?
Answer: The value was 0.0.

Question: And the Mycelial growth (Phytophthora capsici)?
Answer: The Mycelial growth was 1.1 mm.

Question: What about the Water soaked (Phytophthora capsici) of the same compound?
Answer: Its Water soaked is 5.3 mm.

Question: And the “in vivo volatile antimicrobial control of P. expansum mold of apple” value (Penicillium expansum [2]; up to 3 days after treatment)?
Answer: Its value is 100%.

Question: What about the “Sporulation (mm)” value (Penicillium expansum [2]; Day 0) of the same compound?
Answer: The value was 0 mm.

Question: And the “Rot (mm)” value (Penicillium expansum [2]; Day 1)?
Answer: Its value is 0 mm.

Question: What about the “Sporulation (mm)” value (Penicillium expansum [2]; Day 1) of the same compound?
Answer: Its value is 0 mm.

Question: And the “Rot (mm)” value (Penicillium expansum [2]; Day 2)?
Answer: Its value is 0 mm.

Question: What about the “Sporulation (mm)” value (Penicillium expansum [2]; Day 2) of the same compound?
Answer: Its value is 0 mm.

Question: And the “Rot (mm)” value (Penicillium expansum [2]; Day 3)?
Answer: The value was 0 mm.

Question: What about the “Sporulation (mm)” value (Penicillium expansum [2]; Day 3) of the same compound?
Answer: The value was 0 mm.

Question: What about the “Incidence (%)” value (Botrytis cinerea [3]; Blueberry) of the same compound?
Answer: The value was 5%.

Question: And the “Severity (0-4)” value (Botrytis cinerea [3]; Blueberry)?
Answer: Its value is 0.03.

Question: And the “Incidence (%)” value (Botrytis cinerea [3]; Grape)?
Answer: Its value is 26.7%.

Question: And the “Severity (0-4)” value (Botrytis cinerea [3]; Grape)?
Answer: The value was 0.1.

Question: And the “Incidence (%)” value (Botrytis cinerea [3]; Strawberry)?
Answer: Its value is 18.8%.

Question: And the “Severity (0-4)” value (Botrytis cinerea [3]; Strawberry)?
Answer: Its value is 0.09.

Question: What about the Water soaked (Botrytis cinerea [4]) of the same compound?
Answer: Its Water soaked is 0 mm.

Question: And the “Incidence (%) P. expansum” value (Penicillium expansum [5]; 0.08 mg/L)?
Answer: The value was 93.1%.

Question: And the “Incidence (%) P. expansum” value (Penicillium expansum [5]; 0.4 mg/L)?
Answer: The value was 33.0%.

Question: And the “Incidence (%) P. expansum” value (Penicillium expansum [5]; 2 mg/L)?
Answer: The value was 0.0%.

Question: What about the “Incidence (%) P. expansum” value (Penicillium expansum [5]; 10 mg/L) of the same compound?
Answer: Its value is 0.0%.

Question: What about the “Incidence (%) P. digitatum” value (Penicillium digitatum; 0.08 mg/L) of the same compound?
Answer: The value was 42.0%.

Question: What about the “Incidence (%) P. digitatum” value (Penicillium digitatum; 0.4 mg/L) of the same compound?
Answer: Its value is 12.5%.

Question: What about the “Incidence (%) P. digitatum” value (Penicillium digitatum; 2 mg/L) of the same compound?
Answer: The value was 0.0%.

Question: What about the “Incidence (%) P. digitatum” value (Penicillium digitatum; 10 mg/L) of the same compound?
Answer: Its value is 0.0%.

Question: What about the “in vivo inhibition of Botrytis cinerea” value (Botrytis cinerea [6]) of the same compound?
Answer: The value was 100%.
